Results taken from publication PMC8991007, “Benzylic Dehydroxylation of Echinocandin Antifungal Drugs Restores Efficacy against Resistance Conferred by Mutated Glucan Synthase” (Journal of the American Chemical Society, 2022).
Read-outs that look alike come from different tables or passages of the source. *1 amine or outer side, *2 acyl side, *3 side chain or, on linkers, in order; H or OH if unused. Where a SMILES comes first, the peptide text is derived from it. Bridges are numbered along the chain shown (N, C = ends). [ ]: non-standard residue; d: D form. The star is where a group is joined. Orn(4R-OH,5R-OCH2CH2NMe3+) = C[N+](C)(C)CCO[C@@H](N[*:3])[C@H](O)C[C@H](N[*:1])C(=O)[*:2]; pTerphenylCO(4''-OnC5H11) = CCCCCOc1ccc(-c2ccc(-c3ccc(C(=O)*)cc3)cc2)cc1; Orn(4R-OH,5R-OH) = O=C([C@H](C[C@@H](O)[C@@H](O)N[*:3])N[*:1])[*:2]; hTyr(3S-OH,4S-OH) = N[C@H](C(=O)O)[C@H](O)[C@@H](O)c1ccc(O)cc1; Pro(3S-OH,4S-Me) = C[C@H]1CN[C@H](C(=O)O)[C@H]1O; hTyr(3R-OH) = N[C@H](C(=O)O)[C@H](O)Cc1ccc(O)cc1; Hyp = O=C(O)[C@@H]1C[C@@H](O)CN1

Experiments:
[1] = parameters: method as in PMID 23335738; settings: patients with candidemia or invasive candidiasis, 200 mg loading dose day 1 then daily 100 mg; cited from earlier work
HCT-116 = experiment: cells; assay type: cell-based; settings: Homo sapiens; HCT-116 expressing GFP, 24 h, mean ± SD; read-out: IC50 (cell viability)
Method: In this analysis, we used HCT-116, a human colorectal carcinoma cell line; UACC-62, a human melanoma cell line; Hs 578T, a human mammary gland carcinoma cell line, and SF-295, a human glioblastoma cell line. […] The highest concentration of the echinocandins used for the cell viability tests was determined based on the reported maximal plasma concentrations (Cmax) of ANF and RZF measured in humans. A Cmax of approximately 7 μM was measured during a pharmacokinetic study of ANF in patients with candidemia or invasive candidiasis who were treated with a 200 mg loading dose on day 1, followed by a daily 100 mg maintenance dose.[64]
Human cell lines HCT-116, UACC-62, Hs 578T, and SF-295 were obtained from the Life Sciences Core Facilities of the Nancy & Stephen Grand Israel National Center for Personalized Medicine. Cell lines were grown in an RPMI medium (Gibco, cat. no. 21875-034) supplemented with 10% fetal calf serum (Biological Industries, cat. no. 04-007-1A), Pen/Strep (Biological Industries, cat. no. 03-031-1B), and glutamine (Biological Industries, cat. no. 03-020-1B). GFP was introduced into cells using TALENS according to a previously reported protocol.[73] GFP cells were selected by FACS and propagated.
Assay-ready plates were designed using in-house software (CHEMPION, INCPM software development team) and prepared in 384-well Greiner plates (cat. no. 781091) using an Echo 555 Acoustic Liquid Handler (Labcyte). The final DMSO concentration in all samples was 0.4%. Prior to the experiment, cells were trypsinized and counted using a Countess cytometer. Cells were then diluted to 40,000 cells/mL in a fresh medium. Cells (50 μL/well; 2000 cells/well) were then dispensed with a Thermo Combi dispenser into plates containing predispensed compounds. After 30 min at room temperature to ensure uniform adherence of cells, the plates were moved to an automated incubator (Liconic STX44) and incubated at 37 °C. An automated confocal microscope with a 4× S Fluor lens (Molecular Devices ImageExpress) was used to acquire images of GFP-expressing cells after 24 h of incubation. Images were then analyzed using MetaExpress with a custom protocol (Custom Module Editor), and data were annotated and normalized using Genedata Screener software. Final normalized data were then loaded into CDD Vault software for comparative data visualization.

[2] = healthy volunteers, single 400 mg dose, a few hours after administration; cited from earlier work

| SMILES | Cmax [1] | IC50 (HCT-116) | Cmax [2] |
| --- | --- | --- | --- |
| CCCCCOc1ccc(-c2ccc(-c3ccc(C(=O)N[C@H]4C[C@@H](O)[C@@H](O)NC(=O)[C@@H]5[C@@H](O)[C@@H](C)CN5C(=O)[C@H]([C@@H](C)O)NC(=O)[C@H]([C@H](O)[C@@H](O)c5ccc(O)cc5)NC(=O)[C@@H]5C[C@@H](O)CN5C(=O)[C@H]([C@@H](C)O)NC4=O)cc3)cc2)cc1 [ANF, anidulafungin] ({pTerphenylCO(4''-OnC5H11)}-[Orn(4R-OH,5R-OH)]T[Hyp][hTyr(3S-OH,4S-OH)]T[Pro(3S-OH,4S-Me)]; lactam 1-C) | ~7 µM | > 40 µM |  |
| CCCCCOc1ccc(-c2ccc(-c3ccc(C(=O)N[C@H]4C[C@@H](O)[C@@H](O)NC(=O)[C@@H]5[C@@H](O)[C@@H](C)CN5C(=O)[C@H]([C@@H](C)O)NC(=O)[C@H]([C@H](O)Cc5ccc(O)cc5)NC(=O)[C@@H]5C[C@@H](O)CN5C(=O)[C@H]([C@@H](C)O)NC4=O)cc3)cc2)cc1 [Compound 1, dehydroxy-ANF] ({pTerphenylCO(4''-OnC5H11)}-[Orn(4R-OH,5R-OH)]T[Hyp][hTyr(3R-OH)]T[Pro(3S-OH,4S-Me)]; lactam 1-C) |  | > 40 µM |  |
| CCCCCOc1ccc(-c2ccc(-c3ccc(C(=O)N[C@H]4C[C@@H](O)[C@@H](OCC[N+](C)(C)C)NC(=O)[C@@H]5[C@@H](O)[C@@H](C)CN5C(=O)[C@H]([C@@H](C)O)NC(=O)[C@H]([C@H](O)Cc5ccc(O)cc5)NC(=O)[C@@H]5C[C@@H](O)CN5C(=O)[C@H]([C@@H](C)O)NC4=O)cc3)cc2)cc1 [Compound 2, dehydroxy-RZF] ({pTerphenylCO(4''-OnC5H11)}-[Orn(4R-OH,5R-OCH2CH2NMe3+)]T[Hyp][hTyr(3R-OH)]T[Pro(3S-OH,4S-Me)]; lactam 1-C) |  | 34.1 ± 11.5 µM |  |
| CCCCCOc1ccc(-c2ccc(-c3ccc(C(=O)N[C@H]4C[C@@H](O)[C@@H](OCC[N+](C)(C)C)NC(=O)[C@@H]5[C@@H](O)[C@@H](C)CN5C(=O)[C@H]([C@@H](C)O)NC(=O)[C@H]([C@H](O)[C@@H](O)c5ccc(O)cc5)NC(=O)[C@@H]5C[C@@H](O)CN5C(=O)[C@H]([C@@H](C)O)NC4=O)cc3)cc2)cc1 [RZF, rezafungin] ({pTerphenylCO(4''-OnC5H11)}-[Orn(4R-OH,5R-OCH2CH2NMe3+)]T[Hyp][hTyr(3S-OH,4S-OH)]T[Pro(3S-OH,4S-Me)]; lactam 1-C) |  | > 40 µM | ~17 µM |
